Values joined by “and” are separate entries in the source; they are usually repeats but may differ in a detail not shown here. Equal entries are not always repeated. Where two headings read alike, the source gives them in different places.
Experiments:
[1] = design: method as in PMID 27121669; conditions: cited from earlier work; for Cmax: read-out: Expected mean Cmax
[2] = Earlier single-dose pharmacokinetic study of empagliflozin in healthy volunteers; assay type: in vivo, human; conditions: 200 mg versus 25 mg; based on ref 10
healthy volunteers [3] = assay: Safety and tolerability (adverse events) in the TQT study; assay type: in vivo, human
Description: (§1) Secondary endpoints were the changes from period baseline in QTcN at any time point between 0.5–24 hours after dosing. In addition, the MCfB 2–4 hours after dosing (for assessment of the moxifloxacin effect), and the MCfB of all ECGs taken 0.5–24 hours after dosing were evaluated. Safety and tolerability were evaluated based on physical examination, vital signs, ECG, clinical laboratory tests, adverse events (AEs) and the physician’s assessment of global tolerability.
Categorical endpoints such as AEs, cardiologic assessments and occurrence of ECG intervals beyond thresholds of regulatory concern (e.g. QTc >450 ms) were analysed based on incidence rates adjusted for the number of periods in which the treatment was given. Additionally, the analysis of such events in periods with any of the two doses of empagliflozin compared with the two placebo periods provides a direct comparison of incidence rates. All analyses were performed on the “full analysis set”, which comprised all recorded data of all subjects who received at least one dose of study treatment and had at least one ECG endpoint assessment at baseline and post treatment. No imputation for missing data was planned or performed.

[4] = tested on: human ether-a-go-go related gene (hERG)-mediated potassium current; design: method as in unpublished data; conditions: transfected HEK293 cells; ref unpublished data; cited from earlier work
[5] = Empagliflozin plasma pharmacokinetics (HPLC-MS/MS) in the TQT study; assay type: in vivo, human; conditions: for Tmax / AUC(0-t) / Cmax: human; for Tmax: po, read-out: tmax, median; for AUC(0-t): read-out: AUC0−tz, gMean; for Cmax: read-out: Cmax, gMean
Description: Blood samples for pharmacokinetic measurements were taken one hour before drug administration and at the same post-dose time points as ECG measurements, except for the moxifloxacin periods. Empagliflozin concentrations in plasma were determined using a validated high performance liquid chromatography, tandem mass spectrometry (HPLC-MS/MS) assay with a lower limit of quantification of 1.11 nmol/L (0.5 ng/mL). Results were calculated using peak area ratios and calibration curves were created using weighted (1/x2) quadratic regression. […] Pharmacokinetic parameters included Cmax, tmax which were determined directly from the plasma concentration-time profiles of each, and area under the plasma concentration curve from zero to the last quantifiable time point (AUC0–tz), calculated using the linear trapezoidal method for ascending concentrations and the log trapezoidal method for descending concentrations. Pharmacokinetic parameters were determined using WinNonlin™ software v5.2 (Pharsight Corporation, Mountain View, California, USA).

healthy volunteers [6] = assay: Thorough QT study: triplicate 12-lead ECG, QTcN and heart rate change from baseline; assay type: in vivo, human; conditions: for Difference from placebo in mean QTcN change from baseline, mean (SE): 1−4 hours after dosing; for Placebo-corrected MCfB in QTcN from all ECGs (90% CI): 0.5-24 hours after dosing; for Maximum upper CI of placebo-corrected QTcN change from baseline over the time course: 90% CI; for Range of adjusted means of placebo-corrected QTcN change from baseline over the time course: time points 0.5-24 hours
Description: This thorough QT study (TQT) was a randomised, double-blind (moxifloxacin open), placebo-controlled crossover trial which included the following treatments: 25 mg and 200 mg empagliflozin (Boehringer Ingelheim Pharma GmbH & Co. KG); 400 mg open-label moxifloxacin (Avalox®; Bayer Vital, Leverkusen, Germany); and two placebo periods, with a washout of at least seven days between treatments. Trial medication was administered in the morning after an overnight fast.
ECG recordings were made at screening and at the end of the study as part of the safety evaluation. For the QTc evaluation, ECG recordings were made on study drug administration days (as ECG profiles) at 60, 50 and 40 minutes pre-dose (to derive the period-specific baseline), and at 0.5, 1, 1.5, 2, 2.5, 3, 4, 6, 8, 12 and 24 hours post-dose (last three time points omitted for moxifloxacin treatment). At each time point, triplicate standard 12-lead ECGs (I, II, III, aVR, aVL, aVF, V1–V6) of 10 seconds’ duration each were recorded after at least 5 minutes’ rest in the supine position using CardioSoft ECG recording machines (GE Healthcare, Freiburg, Germany). ECGs were sent to a central laboratory for evaluation of PR, QRS, RR and QT intervals. The semi-automatic approach used for determination of the fiducial points provided an automatic pre-assessment using a computer algorithm, which was reviewed by a specialist and adjusted if necessary. This review was performed blinded with regard to treatment and time point.
Data from four cardiac cycles per ECG were averaged. A population heart rate-corrected QT interval (QTcN) was derived by determining the exponent δ of the relationship: QT ~ (1000 / RR)^δ (where δ is the regression effect of the covariate) using a linear mixed model on log-transformed RR and QT data (measured in ms). Data from triplicate ECGs were then averaged for each time point.
The primary endpoint was the mean change from baseline (MCfB) in QTcN which was the mean QTcN derived from ECGs obtained 1–4 hours post-dose minus mean QTcN from baseline ECGs obtained pre-dose at each visit. Plasma concentrations of both empagliflozin and moxifloxacin were expected to reach peak levels within this three-hour window, ensuring the most relevant levels of drug exposure.
as §1
Briefly, the primary analysis compared changes in the primary endpoint (QTcN MCfB over 1–4 hours) using an analysis of covariance (ANCOVA) model with ‘sequence’, ‘period’ and ‘treatment’ as fixed effects, ‘subjects nested within sequences’ as a random effect, and ‘pre-dose baseline’ as a covariate. Analyses were performed using pair-wise comparisons of the trial treatments. The saturated repeated measurements crossover (RMC) model with unstructured covariance using pair-wise comparisons of the trial treatments was used to evaluate changes from baseline in QTcN at any time point between 0.5–24 hours after dosing. […] For descriptive statistics and the exposure-response analysis, the changes from baseline in QTcN of the placebo periods were averaged prior to the derivation of the placebo corrected MCfB.
In agreement with ICH E14, all tests were performed one-sided against the threshold level of regulatory concern of 10 ms with type-I error of α=5%, which is statistically equivalent to the calculation of two-sided 90% confidence intervals for the adjusted mean estimates. […]

[7] = tested on: guinea pig papillary muscle; design: method as in unpublished data; conditions: empagliflozin doses of ≥10 μM (so in the source); ref unpublished data; cited from earlier work
healthy volunteers [8] = tested on: healthy volunteers; design: method as in PMID 19238652, PMID 15165918, PMID 15903123, PMID 11180026; conditions: moxifloxacin 400 mg; cited from earlier work
[9] = single oral dose of 25 mg, healthy volunteers
[10] = empagliflozin 25 mg single oral dose, plasma, n=28
[11] = empagliflozin 200 mg single oral dose, plasma, n=30
[12] = empagliflozin 25 mg, 1-4 hours after administration
[13] = empagliflozin 200 mg, 1-4 hours after administration
[14] = moxifloxacin 400 mg, 2-4 hours after administration

## OC[C@H]1O[C@@H](c2ccc(Cl)c(Cc3ccc(O[C@H]4CCOC4)cc3)c2)[C@H](O)[C@@H](O)[C@@H]1O [Empagliflozin, empagliflozin]
[1]
  Effect of food on drug exposure: no clinically relevant effects of food on drug exposure
[1]; doses ≥10 mg
  Terminal elimination half-life: 10 to 13 h
[1]; single doses of empagliflozin (≥800 mg as printed)
  Time to peak levels: 1.5 to 2.5 h
[1]; [9]
  Mean tmax: 2.2 h
  Cmax: 505 nM
[1]; single oral dose of 200 mg, healthy volunteers
  Cmax: 3490 nM
[2]
  Cmax ratio supratherapeutic dose versus therapeutic dose: ~ 7 fold
Healthy volunteers [3]; human, in vivo
  Volunteers experiencing AEs: 23.3%
[4]
  Interaction with hERG-mediated potassium current: No relevant interactions
[5]; 25 mg and 200 mg single doses
  Dose proportionality of empagliflozin exposure: increased approximately dose proportionally
[5]; [10]
  tmax, median: 1.5 h
  AUC(0-t): 4.86 µM·h
  Cmax: 768 nM
[5]; plasma, 25 mg, empagliflozin 25 mg single oral dose, plasma, n=28
  Tmax: ~1.5 h
[5]; plasma, 200 mg, empagliflozin 200 mg single oral dose, plasma, n=30
  Tmax: ~1.8 h
[5]; [11]
  AUC(0-t): 36.4 µM·h
  Cmax: 4860 nM
Healthy volunteers [6]; 25 mg empagliflozin, primary analysis model with placebo period 1 only
  Difference from placebo in mean QTcN change from baseline, mean (SE): 0.2 (0.9) ms
Healthy volunteers [6]; 25 mg empagliflozin, primary analysis model with placebo period 2 only
  Difference from placebo in mean QTcN change from baseline, mean (SE): 0.6 (1.0) ms
Healthy volunteers [6]; 200 mg empagliflozin, primary analysis model with placebo period 1 only
  Difference from placebo in mean QTcN change from baseline, mean (SE): -0.5 (0.8) ms
Healthy volunteers [6]; 200 mg empagliflozin, primary analysis model with placebo period 2 only
  Difference from placebo in mean QTcN change from baseline, mean (SE): 0.1 (0.8) ms
Healthy volunteers [6]; both doses (25 mg and 200 mg), CIs include zero
  Slope estimates of exposure-response relationship between empagliflozin and heart rate: slope estimates close to zero
Healthy volunteers [6]; both empagliflozin doses (25 mg and 200 mg)
  Range of adjusted means of placebo-corrected heart rate change from baseline over the time course: -1.2 to 1.5 bpm
Healthy volunteers [6]; both empagliflozin doses (25 mg and 200 mg), all CIs within
  90% CIs of placebo-corrected heart rate change from baseline over the time course: -3 to 3 bpm
Healthy volunteers [6]; empagliflozin 25 mg
  Intercept of exposure-response analysis of placebo-corrected QTcN change from baseline: 0.35 ms
  Slope (estimate) of exposure-response analysis of placebo-corrected QTcN change from baseline: -0.0007 ms/(nmol/L)
  Placebo-corrected MCfB in QTcN from all ECGs (90% CI): 0.7 (90% CI: -0.4, 1.7) ms
  Maximum upper CI of placebo-corrected QTcN change from baseline over the time course: 4.7 ms
  Range of adjusted means of placebo-corrected QTcN change from baseline over the time course: -2.7 to 2.2 ms
Healthy volunteers [6]; empagliflozin 25 mg single oral dose, 1-4 hours after administration, n=28
  QTcN mean change from baseline: ΔQTcN, adjusted mean (SE): 4.3 (1.1) ms
Healthy volunteers [6]; empagliflozin 25 mg, 0.5-24 hours post-dose, one volunteer
  Volunteers exceeding the QTcN threshold of 450 ms: 3.6%
Healthy volunteers [6]; [12]
  Difference from placebo: ΔΔHR, adjusted mean (SE): -0.9 (0.5) bpm
  HR mean change from baseline: ΔHR, adjusted mean (SE): -1.2 (0.5) bpm
Healthy volunteers [6]; empagliflozin 25 mg, 1-4 hours after dosing, both placebo periods
  Difference from placebo: ΔΔQTcN (placebo-corrected MCfB in QTcN), adjusted mean: 0.6 (0.8) ms
Healthy volunteers [6]; empagliflozin 25 mg, 1-4 hours after dosing, both placebo periods, listed as empagliflozin
  Difference from placebo: ΔΔQTcN (placebo-corrected MCfB in QTcN), adjusted mean: 0.6 (90% CI: -0.7, 1.9) ms and 0.6 (90% confidence interval [CI]: -0.7, 1.9) ms
Healthy volunteers [6]; empagliflozin 25 mg, at gMean Cmax 768 nmol/L
  Predicted value of placebo-corrected change from baseline QTcN at gMean of Cmax, estimate: -0.20 ms
Healthy volunteers [6]; empagliflozin 200 mg
  Intercept of exposure-response analysis of placebo-corrected QTcN change from baseline: -0.60 ms
  Slope (estimate) of exposure-response analysis of placebo-corrected QTcN change from baseline: -0.0000 ms/(nmol/L)
  Placebo-corrected MCfB in QTcN from all ECGs (90% CI): -0.2 (-1.2, 0.9) ms
  Maximum upper CI of placebo-corrected QTcN change from baseline over the time course: 3.5 ms
  Range of adjusted means of placebo-corrected QTcN change from baseline over the time course: -1.8 to 1.6 ms
Healthy volunteers [6]; empagliflozin 200 mg single oral dose, 1-4 hours after administration, n=30
  QTcN mean change from baseline: ΔQTcN, adjusted mean (SE): 3.4 (0.9) ms
Healthy volunteers [6]; empagliflozin 200 mg, 0.5-24 hours post-dose, two volunteers
  Volunteers exceeding the QTcN threshold of 450 ms: 6.7%
Healthy volunteers [6]; [13]
  Difference from placebo: ΔΔHR, adjusted mean (SE): 0.0 (0.5) bpm
  HR mean change from baseline: ΔHR, adjusted mean (SE): -0.3 (0.5) bpm
Healthy volunteers [6]; empagliflozin 200 mg, 1-4 hours after dosing, both placebo periods
  Difference from placebo: ΔΔQTcN (placebo-corrected MCfB in QTcN), adjusted mean: -0.2 (0.7) ms
Healthy volunteers [6]; empagliflozin 200 mg, 1-4 hours after dosing, both placebo periods, listed as empagliflozin
  Difference from placebo: ΔΔQTcN (placebo-corrected MCfB in QTcN), adjusted mean: -0.2 (-1.4, 0.9) ms
Healthy volunteers [6]; empagliflozin 200 mg, at gMean Cmax 4860 nmol/L
  Predicted value of placebo-corrected change from baseline QTcN at gMean of Cmax, estimate: -0.64 ms
[7]
  Effect on action potential configuration or contractile function: no effect on action potentials

## COc1c(N2C[C@@H]3CCCN[C@@H]3C2)c(F)cc2c(=O)c(C(=O)O)cn(C3CC3)c12 [Moxifloxacin, moxifloxacin, reference compound]
Healthy volunteers [3]; moxifloxacin, one participant, not considered related to study medication
  Serious AE leading to study discontinuation: fatal car accident
Healthy volunteers [6]; moxifloxacin 400 mg
  Number of volunteers with a change in QTcN more than 30 ms: Five
Healthy volunteers [6]; moxifloxacin 400 mg single dose, open-label, 2-4 hours after administration, n=29
  QTcN mean change from baseline: ΔQTcN, adjusted mean (SE): 16.0 (1.2) ms
Healthy volunteers [6]; moxifloxacin 400 mg, 0.5-6 hours post-dose, two volunteers
  Volunteers exceeding the QTcN threshold of 450 ms: 6.9%
Healthy volunteers [6]; [14]
  Difference from placebo: ΔΔHR, adjusted mean (SE): 2.2 (0.6) bpm
  HR mean change from baseline: ΔHR, adjusted mean (SE): 2.0 (0.6) bpm
Healthy volunteers [6]; moxifloxacin 400 mg, 2-4 hours post-dose, assay sensitivity
  Difference from placebo: ΔΔQTcN (placebo-corrected MCfB in QTcN), adjusted mean: 12.4 (1.0) ms
Healthy volunteers [6]; moxifloxacin 400 mg, 2-4 hours post-dose, assay sensitivity, listed as moxifloxacin
  Difference from placebo: ΔΔQTcN (placebo-corrected MCfB in QTcN), adjusted mean: 12.4 (10.7, 14.1) ms
Healthy volunteers [8]
  Prolongation of heart rate-corrected QT interval compared to placebo: 6 to 15 ms

From article PMC3648489, “The sodium glucose cotransporter 2 inhibitor empagliflozin does not prolong QT interval in a thorough QT (TQT) study” (Cardiovascular Diabetology, 2013)
